Source: patent US9364496B2 (ONCOGENEX TECHNOLOGIES INC., priority 2013, dated 2016)
“And” between values parts separate entries of the source, which are not always exact repeats. Identical values can stand only once. “Also recorded” adds a separate entry of the source. Like-named read-outs stand apart in the source and are kept apart here.

Key:
[1] = cited from earlier work
[2] = Randomized Phase 2 Study OGX-011-03, custirsen plus docetaxel vs docetaxel; conditions: per arm
[3] = tested on: RPMI 8226 (human myeloma) xenograft; experiment: In vivo activity of custirsen with Velcade, RPMI 8226 xenograft (Example 14); conditions: for efficacy (tumor growth), in words: Velcade 0.5 mg/kg iv; for Day 27 Δ volume / Day 34 Δ volume / Day 41 Δ volume / Day 45 Δ volume: vs Day 20
Experimental: The cells were implanted subcutaneously into female SCID mice with 7×10^6 cells inoculum.
Tumors and body weights were measured weekly until termination of the study on day 71. Response to treatment was evaluated for tumor growth inhibition (TGI) and tumor growth delay (TGD).
70 CB.17 SCID female mice, 4-6 weeks old, 16-20 grams, obtained from Harlan animal breeding center.
Sample from the cell suspension was taken for counting (0.3 ml in duplicates for CEDEX) before spun down. Cell viability was 85.6% and live cell concentration was 167×10^5 cells/ml. The pellet was resuspended in HBSS to a final volume of 8 ml.
Tumors were implanted subcutaneously with RPMI-8226 cells into the right flank of the mouse on Day 0. Each animal received a s.c. injection 7×10^6 cells in 0.1 ml suspension. On day 20, mice were sorted by the optimal tumor volume ([…]) and were allocated into 5 groups of 10 mice. Mice were individually tagged and their tumor volume and body weight were monitored weekly during the study. Tumor size was measured by caliper and calculated using the formula: […]
The treatment started on […] (0.2 ml per 20 grams v/w) and continued till day 52, after which the remaining mice were left for observation until day 71.

[4] = Velcade 0.5 mg/kg iv biwk, Day 48, individual mice
[5] = Velcade 0.5 mg/kg iv biwk, Day 51, group mean
[6] = Velcade 0.5 mg/kg iv biwk, Day 51, individual mice
[7] = Velcade 0.5 mg/kg iv biwk, day 51
[8] = Velcade 0.5 mg/kg iv biwk, earlier day (day not given), group mean, tumor
[9] = Velcade 0.5 mg/kg iv biwk, earlier day (day not given), individual mouse, tumor
[10] = Velcade 0.5 mg/kg iv biwk, group Mean, n 10
[11] = Velcade 0.5 mg/kg iv biwk, individual mouse
[12] = Velcade 0.5 mg/kg iv biwk, later day (day not given), group mean, tumor
[13] = Velcade 0.5 mg/kg iv biwk, later day (day not given), individual mouse, tumor

CC(=O)O[C@@]12CO[C@@H]1C[C@H](O)[C@@]1(C)C(=O)[C@H](O)C3=C(C)[C@@H](OC(=O)[C@H](O)[C@@H](NC(=O)OC(C)(C)C)c4ccccc4)C[C@@](O)([C@@H](OC(=O)c4ccccc4)[C@H]21)C3(C)C [Docetaxel]
grade 4 neutropenia (<500 cells/mm^3), patients ([1]; 60 mg/m^2): 75%
grade 4 neutropenia (<500 cells/mm^3), patients ([1]; 100 mg/m^2): 85%
neutropenia (<2,000 neutrophils/mm3), occurrence ([1]; 60-100 mg/m^2): virtually all patients
incidence of elevated creatinine (primarily grade 1/2) [2]: 5%

CC(C)C[C@H](NC(=O)[C@H](Cc1ccccc1)NC(=O)c1cnccn1)B(O)O [Velcade®, Bortezomib, reference compound]
efficacy (tumor growth), in words [3]: moderate but not statistically significant efficacy; also recorded: moderate and not statistically significant effect
volume ([3]; Velcade 0.5 mg/kg iv biwk, Day 48, group mean): 749.8
volume [3, 4]: 520 and 868 and 757 and 647 and 687 and 470 and 1151 and 789
Δ volume [3, 4]: 401.6 and 745.2 and 624.2 and 508.9 and 919.1 and 403.8 and 310.7 and 988.8 and 625.7
volume [3, 5]: 1027.5
Δ volume [3, 5]: 884.2
volume [3, 6]: 767 and 1043 and 1313 and 774 and 1432 and 917 and 1635 and 1195
Δ volume [3, 6]: 648.2 and 920.6 and 1179.9 and 636.4 and 1291.7 and 474.1 and 768.2 and 418.7 and 1473.4 and 1031.3
% TGI day 51 [3, 7]: 28%
No. of CR [3, 7]: 0
No. of PR [3, 7]: 0
No. of TRD [3, 7]: 0
No. og nTRD [3, 7]: 0
Δ mean tumor volume, (mean ± se) [3, 7]: 884 ± 356
volume [3, 8]: 1366.1
Δ volume [3, 8]: 1224.9
volume [3, 9]: 1019 and 1659 and 1885 and 779 and 2196 and 721 and 1500 and 885 and 1651
Δ volume [3, 9]: 900.3 and 1536.1 and 1752.5 and 640.9 and 2055.5 and 1351.3 and 724.9 and 1487.1
Day 20 volume [3, 10]: 143.2
Day 27 volume [3, 10]: 213.1
Day 34 volume [3, 10]: 251.6
Day 41 volume [3, 10]: 422.8
Day 27 Δ volume [3, 10]: 69.9
Day 34 Δ volume [3, 10]: 108.3
Day 41 Δ volume [3, 10]: 279.5
Day 45 Δ volume [3, 10]: 431.8
Day 20 volume [3, 11]: 133 and 138 and 141 and 145 and 149 and 160 and 162 and 164
Day 27 volume [3, 11]: 225 (2×) and 260 and 235 and 253 and 206 and 231 and 149 and 185 and 162
Day 34 volume [3, 11]: 185 and 232 and 255 and 286 and 266 and 285 and 272 and 162 and 343 and 230
Day 41 volume [3, 11]: 289 and 481 and 501 and 387 and 491 and 443 and 475 and 269 and 528 and 384
Day 45 volume [3, 11]: 430 and 667 and 507 and 733 and 495 and 663 and 351 and 744
Day 27 Δ volume [3, 11]: 137.0 and 102.2 and 115.3 and 65.3 and 85.8 and −0.6 and 25.6 and 63.7 and −2.2
Day 34 Δ volume [3, 11]: 66.0 and 109.0 and 148.3 and 140.0 and 2.9 and 181.4 and 65.9
Day 41 Δ volume [3, 11]: 170.3 and 358.8 and 368.2 and 249.1 and 349.9 and 297.3 and 325.8 and 109.0 and 366.6 and 200.2
Day 45 Δ volume [3, 11]: 311.5 and 488.4 and 368.7 and 350.1 and 514.1 and 191.8 and 374.8
volume [3, 12]: 1236.8
Δ volume [3, 12]: 1096.4
volume [3, 13]: 1484 and 881 and 1166 and 1417
Δ volume [3, 13]: 1365.3 and 742.6 and 1020.7 and 1257.1
efficacy (tumor growth), in words ([3]; listed as Velcade): moderate
